# Results from US11896035B2, “Chemical mitigants in animal feed and feed ingredients” (priority 2014, dated 2024).
# Tested on: PEDv
# Experiment: PEDv RT-PCR (Ct) in chemically treated, then inoculated feed matrices
# Design: species or system Porcine Epidemic Diarrhea virus
# Settings: room temperature; for Spray Dried Plasma Average CT Count: spray dried animal plasma
# Experimental: In a third study, experiments were conducted to evaluate the effectiveness of various chemical mitigation strategies on post-processing contamination of PEDv in feed and feed components. Treatments were arranged in a 7×4 factorial with 6 chemical treatments plus a control, and 4 feed matrices. […] The 4 feed matrices included: 1) complete swine diet (complete nursery diet), 2) blood meal, 3) porcine meat and bone meal (MBM), and 4) spray-dried animal plasma. The 4 feed treatments×6 chemical treatments (plus 1 control) equaled 28-1 kg batches. The feed matrices were chemically treated first and then inoculated to represent post-processing contamination. […] There were 3 segregated replicates of each batch for each day of analysis. All samples were stored at room temperature. Untreated control supernant from each of the 4 feed matrixes on day 0 was harvested and aliquots frozen and used as controls for subsequent analysis days Each day these samples were used as laboratory controls to evaluate inter assay variation.
# Samples were analyzed for PEDv by RT-PCR. Analyzed values represent cycle time or cycle threshold (Ct.) before detection, Lower Ct values indicate greater nucleic acid presence, but not necessarily infectivity. Data were analyzed using the GLIMMIX procedure of SAS with fixed effects of chemical treatment, matrix, and time, as well as all interactions.
smiles,measurement,setting,value
"[Na+].[O-][Cl+2]([O-])[O-] [Sodium chlorate, sodium chlorate]",Porcine Blood Meal Average Ct Count,day 0,29
same,Porcine Blood Meal Average Ct Count,day 1,29
same,Porcine Blood Meal Average Ct Count,day 3,31
same,Porcine Blood Meal Average Ct Count,day 7,32
same,Porcine Blood Meal Average Ct Count,day 14,33
same,Porcine Blood Meal Average Ct Count,day 21,36
same,Porcine Blood Meal Average Ct Count,day 42,36
same,Porcine Meat and Bone Meal Average CT Count,day 0,26
same,Porcine Meat and Bone Meal Average CT Count,day 1,25
same,Porcine Meat and Bone Meal Average CT Count,day 3,27
same,Porcine Meat and Bone Meal Average CT Count,day 7,27
same,Porcine Meat and Bone Meal Average CT Count,day 14,28
same,Porcine Meat and Bone Meal Average CT Count,day 21,27
same,Porcine Meat and Bone Meal Average CT Count,day 42,29
same,Spray Dried Plasma Average CT Count,day 0,28
same,Spray Dried Plasma Average CT Count,day 1,26
same,Spray Dried Plasma Average CT Count,day 3,28
same,Spray Dried Plasma Average CT Count,day 7,28
same,Spray Dried Plasma Average CT Count,day 14,28
same,Spray Dried Plasma Average CT Count,day 21,29
same,Spray Dried Plasma Average CT Count,day 42,28
same,Swine Diet Average Ct Count,day 0,28
same,Swine Diet Average Ct Count,day 1,28
same,Swine Diet Average Ct Count,day 3,29
same,Swine Diet Average Ct Count,day 7,30
same,Swine Diet Average Ct Count,day 14,29
same,Swine Diet Average Ct Count,day 21,32
same,Swine Diet Average Ct Count,day 42,32
